Patent US20250345446A1 (Draupnir Bio ApS, priority 2022, published 2025)
Residues, ends and D or L forms follow the SMILES beside them. No end group written: not given here. *: point of attachment. Biotin = O=C1N[C@H]2[C@H](CS[C@H]2CCCCC(=O)*)N1

Target: T1, soluble ectodomain of sortilin-6his (Homo sapiens, UniProt Q99523, V650M)
T1 construct: the soluble ectodomain of sortilin-6his is measured by microscale thermophoresis (MST)
Test: MST binding to soluble ectodomain of sortilin-6his
Settings: Table 1; biotin-linker-peptide bifunctional compounds; MST; read-out: KD score, binding to sortilin (Kd)
Protocol: At this point the plate was sealed with adhesive strip and placed on an Eppendorf thermomixer to shake at 600 rpm for 3 min before spinning on a Fisherbrand plate-spinner for 15 seconds and further incubation 1 hrs at 19° C. MST was measured on a Monolith NT. Automated (Nanotemper) in standard-treated capillaries at 5% LED-power and high MST-power. Dose-response was extracted from the raw thermographs at 20 sec hot-time and the dissociation constant was estimated by sigmoidal curve fitting in MO. Affinity analysis program (Nanotemper). All experiments were run in duplicates.

| Compound | Kd |
| --- | --- |
| CC(C)C[C@H](NC(=O)[C@H](CC(C)C)NC(=O)[C@H](CCC(N)=O)NC(=O)[C@H](CCCNC(=N)N)NC(=O)[C@H](CO)NC(=O)CNC(=O)CNC(=O)CCCC[C@@H]1SC[C@@H]2NC(=O)N[C@@H]21)C(=O)O [compound 152] (Biotin-GGSRQLL-OH) | 100 to 2000 nM |
| CC(C)C[C@H](NC(=O)[C@H](CC(C)C)NC(=O)[C@H](CCC(N)=O)NC(=O)[C@H](Cc1ccccc1)NC(=O)CNC(=O)CNC(=O)CNC(=O)CNC(=O)[C@H](CO)NC(=O)CNC(=O)CNC(=O)CCCC[C@@H]1SC[C@@H]2NC(=O)N[C@@H]21)C(=O)O [compound 143] (Biotin-GGSGGGGFQLL-OH) | < 100 nM |

Same assay, conditions: Table 3; monofunctional peptides; MST; read-out: KD score, binding to sortilin (Kd)

| Compound | Kd |
| --- | --- |
| CC(C)C[C@H](NC(=O)[C@H](CCCNC(=N)N)NC(=O)[C@H](CCCNC(=N)N)NC(=O)[C@H](CCCCN)NC(=O)[C@H](CCCCN)NC(=O)[C@H](Cc1ccccc1)NC(=O)[C@H](CC(C)C)NC(=O)[C@@H](N)CCCNC(=N)N)C(=O)N[C@@H](CCCNC(=N)N)C(=O)N[C@@H](CO)C(=O)N1CCC[C@H]1C(=O)N[C@@H](CCCNC(=N)N)C(=O)N[C@H](C(=O)N[C@@H](CC(C)C)C(=O)N[C@@H](Cc1ccccc1)C(N)=O)C(C)C [compound 47] | > 2500 nM |
| GGSGGGGSGGGGSGGRQLL-OH [compound 167] | 25 to 250 nM |
| H-GVSWGLR-OH [compound 52] | > 2500 nM |
| REAPRWDAPLRDPALFQLL-OH [compound 58] | < 25 nM |
| CC(C)C[C@H](NC(=O)[C@H](CC(C)C)NC(=O)[C@H](Cc1ccc(O)cc1)NC(=O)[C@@H]1CCCN1)C(=O)O [compound 33] (H-PYLL-OH) | 250 to 2500 nM |
| CC[C@H](C)[C@H](NC(=O)[C@H](Cc1ccc(O)cc1)NC(=O)[C@@H]1CCCN1)C(=O)N[C@@H](CC(C)C)C(=O)O [compound 26] (H-PYIL-OH) | 25 to 250 nM |
| CC(C)C[C@H](NC(=O)[C@H](Cc1ccccc1)NC(=O)[C@H](Cc1ccc(O)cc1)NC(=O)[C@@H](N)CCCNC(=N)N)C(=O)O [compound 37] (H-RYFL-OH) | 250 to 2500 nM |
| CC(C)C[C@H](NC(=O)[C@H](CCC(N)=O)NC(=O)[C@@H](N)CCCNC(=N)N)C(=O)O [compound 166] (H-Arg-Gln-Leu-OH) | > 2500 nM |
| REALRWDAPLRDPAPRQLL-OH [compound 54] | < 25 nM |
| CC(C)C[C@H](NC(=O)[C@H](CC(C)C)NC(=O)[C@H](CCC(N)=O)NC(=O)[C@H](CCCNC(=N)N)NC(=O)[C@H](CC(C)C)NC(=O)[C@H](C)NC(=O)[C@@H]1CCCN1C(=O)[C@H](CC(=O)O)NC(=O)[C@H](CCCNC(=N)N)NC(=O)[C@H](CC(C)C)NC(=O)[C@@H]1CCCN1C(=O)[C@H](C)NC(=O)[C@H](CC(=O)O)NC(=O)[C@H](Cc1c[nH]c2ccccc12)NC(=O)[C@H](CCCNC(=N)N)NC(=O)[C@@H]1CCCN1C(=O)[C@H](C)NC(=O)[C@H](CCC(=O)O)NC(=O)[C@@H](N)CCCNC(=N)N)C(=O)O [compound 53] | < 25 nM |
| CC(C)C[C@H](NC(=O)[C@H](CC(C)C)NC(=O)[C@H](CCC(N)=O)NC(=O)[C@@H](N)Cc1ccc(O)cc1)C(=O)O [compound 29, YQLL-OH] (H-YQLL-OH) | 25 to 250 nM |

Same assay, conditions: Table 4; small molecule bifunctional compounds; MST; read-out: KD score, binding to sortilin (Kd)

| Compound | Kd |
| --- | --- |
| C[C@@H]1CN(c2ncc(-c3ccc4c(n3)N(Cc3cccnc3C#N)C(C)(C)C4=O)cn2)CCN1C(=O)Cn1cc(COCCOCCOCC(=O)N2CCC(Oc3cccc(Oc4ccc(C(=O)N[C@@H](CCC(C)(C)C)C(=O)O)cn4)c3)CC2)nn1 [BF112, (2S)-2-[[6-[3-[[1-[2-[2-[2-[[1-[2-[(2R)-4-[5-[1-[(2-cyano-3-pyridyl)methyl]-2,2-dimethyl-3-oxo-pyrrolo[2,3-b]pyridin-6-yl]pyrimidin-2-yl]-2-methyl-piperazin-1-yl]-2-oxo-ethyl]triazol-4-yl]methoxy]ethoxy]ethoxy]acetyl]-4-piperidyl]oxy]phenoxy]pyridine-3-carbonyl]amino]-5,5-dimethyl-hexanoic acid] | < 1 nM |
| CC(C)(C)CC[C@H](NC(=O)c1ccc(Oc2cccc(C(=O)NCCOCCOCCOCc3ccc(-c4cccc5ccncc45)c(OCCc4ccc(-c5cccc6ccncc56)cc4)c3)c2)nc1)C(=O)O [BF033, (2S)-2-[[6-[3-[2-[2-[2-[[4-(8-isoquinolyl)-3-[2-[4-(8-isoquinolyl)phenyl]ethoxy]phenyl]methoxy]ethoxy]ethoxy]ethylcarbamoyl]phenoxy]pyridine-3-carbonyl]amino]-5,5-dimethyl-hexanoic acid] | < 1 nM |
| CC(C)(C)CC[C@H](NC(=O)c1ccc(Oc2cccc(C(=O)NCCOCCOCCOc3ncc(-c4ccc5c(n4)N(Cc4cccnc4C#N)C(C)(C)C5=O)cn3)c2)nc1)C(=O)O [BF070, (2S)-2-[[6-[3-[2-[2-[2-[5-[1-[(2-cyano-3-pyridyl)methyl]-2,2-dimethyl-3-oxo-pyrrolo[2,3-b]pyridin-6-yl]pyrimidin-2-yl]oxyethoxy]ethoxy]ethylcarbamoyl]phenoxy]pyridine-3-carbonyl]amino]-5,5-dimethyl-hexanoic acid] | 1 to 10 nM |
| CC(C)(C)CC[C@H](NC(=O)c1ccc(Oc2cccc(C(=O)NCCOCCOCCOCCOCCNc3ccc([N+](=O)[O-])cc3[N+](=O)[O-])c2)nc1)C(=O)O [BF003, (2S)-2-[[6-[3-[2-[2-[2-[2-[2-(2,4-dinitroanilino)ethoxy]ethoxy]ethoxy]ethoxy]ethylcarbamoyl]phenoxy]pyridine-3-carbonyl]amino]-5,5-dimethyl-hexanoic acid] | 1 to 10 nM |
| Cc1nc2cc(F)c(-c3cnc(OCCN4CCC(n5cc(COCC(=O)N6CCC(OCCNC(=O)COc7cccc(Oc8ccc(C(=O)N[C@@H](CCC(C)(C)C)C(=O)O)cn8)c7)CC6)nn5)CC4)nc3)nc2c(N[C@H](C)c2cc(C#N)ccc2F)c1Cl [BF090, (2S)-2-[[6-[3-[2-[2-[[1-[2-[[1-[1-[2-[5-[7-chloro-8-[[(1R)-1-(5-cyano-2-fluoro-phenyl)ethyl]amino]-3-fluoro-6-methyl-1,5-naphthyridin-2-yl]pyrimidin-2-yl]oxyethyl]-4-piperidyl]triazol-4-yl]methoxy]acetyl]-4-piperidyl]oxy]ethylamino]-2-oxo-ethoxy]phenoxy]pyridine-3-carbonyl]amino]-5,5-dimethyl-hexanoic acid] | < 1 nM |
| C[C@@H]1CN(c2ncc(-c3ccc4c(n3)N(Cc3cccnc3C#N)C(C)(C)C4=O)cn2)CCN1C(=O)COCCNc1cccc(Oc2ccc(C(=O)N[C@@H](CCC(C)(C)C)C(=O)O)cn2)c1 [BF047, (S)-2-(6-(3-((2-(2-((R)-4-(5-(1-((2-cyanopyridin-3-yl)methyl)-2,2-dimethyl-3-oxo-2,3-dihydro-1H-pyrrolo[2,3-b]pyridin-6-yl)pyrimidin-2-yl)-2-methylpiperazin-1-yl)-2-oxoethoxy)ethyl)amino)phenoxy)nicotinamido)-5,5-dimethylhexanoic acid] | 1 to 10 nM |
| C[C@@H]1CN(c2ncc(-c3ccc4c(n3)N(Cc3cccnc3C#N)C(C)(C)C4=O)cn2)CCN1C(=O)COCCOCCOCCNC(=O)c1cccc(Oc2ccc(C(=O)N[C@@H](CCC(C)(C)C)C(=O)O)cn2)c1 [BF056, (2S)-2-[[6-[3-[2-[2-[2-[2-[(2R)-4-[5-[1-[(2-cyano-3-pyridyl)methyl]-2,2-dimethyl-3-oxo-pyrrolo[2,3-b]pyridin-6-yl]pyrimidin-2-yl]-2-methyl-piperazin-1-yl]-2-oxo-ethoxy]ethoxy]ethoxy]ethylcarbamoyl]phenoxy]pyridine-3-carbonyl]amino]-5,5-dimethyl-hexanoic acid] | 10 to 250 nM |
| CC(C)(C)CC[C@H](NC(=O)c1ccc(Oc2cccc(C(=O)NCCOCCOCCOCCOCCNc3ncc(-c4ccc5c(n4)N(Cc4cccnc4C#N)C(C)(C)C5=O)cn3)c2)nc1)C(=O)O [BF062, (2S)-2-[[6-[3-[2-[2-[2-[2-[2-[[5-[1-[(2-cyano-3-pyridyl)methyl]-2,2-dimethyl-3-oxo-pyrrolo[2,3-b]pyridin-6-yl]pyrimidin-2-yl]amino]ethoxy]ethoxy]ethoxy]ethoxy]ethylcarbamoyl]phenoxy]pyridine-3-carbonyl]amino]-5,5-dimethyl-hexanoic acid] | 1 to 10 nM |
| C[C@@H]1CN(c2ncc(-c3ccc4c(n3)N(Cc3cccnc3C#N)C(C)(C)C4=O)cn2)CCN1C(=O)Cn1cc(COCCOCCN2CCN(CCOCCOc3cccc(Oc4ccc(C(=O)N[C@@H](CCC(C)(C)C)C(=O)O)cn4)c3)CC2)nn1 [BF113, (2S)-2-[[6-[3-[2-[2-[4-[2-[2-[[1-[2-[(2R)-4-[5-[1-[(2-cyano-3-pyridyl)methyl]-2,2-dimethyl-3-oxo-pyrrolo[2,3-b]pyridin-6-yl]pyrimidin-2-yl]-2-methyl-piperazin-1-yl]-2-oxo-ethyl]triazol-4-yl]methoxy]ethoxy]ethyl]piperazin-1-yl]ethoxy]ethoxy]phenoxy]pyridine-3-carbonyl]amino]-5,5-dimethyl-hexanoic acid] | < 1 nM |
| Cc1nc2cc(F)c(-c3cnc(OCCOCCOCCOCCOCCOCCOCCNC(=O)COc4cccc(Oc5ccc(C(=O)N[C@@H](CCC(C)(C)C)C(=O)O)cn5)c4)nc3)nc2c(N[C@H](C)c2cc(C#N)ccc2F)c1Cl [BF085, (2S)-2-[[6-[3-[2-[2-[2-[2-[2-[2-[2-[2-[5-[7-chloro-8-[[(1R)-1-(5-cyano-2-fluoro-phenyl)ethyl]amino]-3-fluoro-6-methyl-1,5-naphthyridin-2-yl]pyrimidin-2-yl]oxyethoxy]ethoxy]ethoxy]ethoxy]ethoxy]ethoxy]ethylamino]-2-oxo-ethoxy]phenoxy]pyridine-3-carbonyl]amino]-5,5-dimethyl-hexanoic acid] | 1 to 10 nM |
| CC(C)(C)CC[C@H](NC(=O)c1ccc(Oc2cccc(C(=O)NCCOCCOCCOCCNc3ncc(-c4ccc5c(n4)N(Cc4cccnc4C#N)C(C)(C)C5=O)cn3)c2)nc1)C(=O)O [BF030, (2S)-2-[[6-[3-[2-[2-[2-[2-[[5-[1-[(2-cyano-3-pyridyl)methyl]-2,2-dimethyl-3-oxo-pyrrolo[2,3-b]pyridin-6-yl]pyrimidin-2-yl]amino]ethoxy]ethoxy]ethoxy]ethylcarbamoyl]phenoxy]pyridine-3-carbonyl]amino]-5,5-dimethyl-hexanoic acid] | < 1 nM |
